target: T1, recombinant human Flag-tagged PARP7 (amino acids 456-657) (Homo sapiens, UniProt Q7Z3E1); test: PARP7 biochemical DELFIA assay (auto-MARylation); details: DELFIA readout, IC50 class
T1 construct: recombinant human Flag-tagged PARP7 (amino acids 456-657)
T1 sequence (Q7Z3E1 456-657): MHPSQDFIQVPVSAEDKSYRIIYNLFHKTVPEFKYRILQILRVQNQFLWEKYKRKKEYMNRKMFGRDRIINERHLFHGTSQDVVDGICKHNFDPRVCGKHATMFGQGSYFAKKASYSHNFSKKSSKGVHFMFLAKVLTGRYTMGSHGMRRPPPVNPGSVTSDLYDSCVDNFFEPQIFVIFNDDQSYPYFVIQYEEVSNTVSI
Description: A suitable assay may be conducted using 10-30 nM PARP7 (amino acids 456-657), 2 μM biotin-NAD assay solution in 20 mM HEPES (pH 7.5), 100 mM NaCl, 2 mM DTT, 0.1% BSA (w/v), 0.02% Tween (v/v) assay buffer. MARylation may take place for 2-3 h at room temperature and may be detected using a dissociation-enhanced lanthanide fluorescence immunoassay (DELFIA) readout. This assay format has been recently utilised for screening for modulators of PARP7 and other MonoPARP enzymes ([…]. et al. Forced Self-Modification Assays as a Strategy to Screen MonoPARP Enzymes. SLAS Discovery. 25; 241-252, (2020)). A particularly suitable assay is described in the Examples below. Optiplate HB 384-well plates were coated with anti-FLAG antibody, supplied as a 4 mg/ml solution, using a Na2CO3/HCO3 coating buffer at pH 9.6, overnight at 4° C., in order to achieve a final immobilisation per well of 0.3 μg. Wells were then washed 3× in coating wash buffer (PBS/0.05% Tween (v/v)), blocked with 2% BSA (w/v) in coating wash buffer and washed 3 further times prior to assay. For the assay 20 μl of 12.5-37.5 nM recombinant human Flag-tagged PARP7 (amino acids 456-657) was added to each well of the 384-well plate for 30 min at room temperature. 50 nl of test compound in DMSO was added using pintool technology and plates were incubated for a further 30 min at room temperature. 5 μl of 15 μM biotin-NAD^+ assay solution in 20 mM HEPES (pH 7.5), 100 mM NaCl, 2 mM DTT, 0.1% BSA (w/v), 0.02% Tween (v/v) assay buffer was then added and MARylation proceeded for 2-3 h at room temperature prior to the addition of 5 μl of 12 mM NAD^+ quenching solution. After 30 min at room temperature, assay solution was removed and following washing 5 times, 100 μl of a 1:1000 dilution of DELFIA Eu-N1 Streptavidin reagent was added. Plates were then incubated for 30 min at room temperature. Reaction mixture was removed and plates washed 5 times prior to the addition of 25 μl DELFIA enhancement solution. Following incubation for 30 min at room temperature, fluorescence was read on either an Envision or Pherastar FS (Ex337 nm, Em620 nm).

IC50 [nM] | SMILES
≤ 100 | O=C(CCOCCn1nc(C(F)(F)F)c2c(=O)[nH]ncc21)N1CCN(c2nc(C(F)(F)F)cs2)CC1 [Compound 299]
≤ 100 | O=c1[nH]ncc2c1c(C(F)(F)F)nn2CCOCCS(=O)(=O)N1CCN(c2ncc(C(F)(F)F)cn2)CC1 [Compound 447]
100 to 1000 | CC(C)(COCCC(=O)N1CCN(c2ncc(C(F)(F)F)cn2)CC1)c1cccc2c(=O)[nH]ncc12 [Compound 425]
1000 to 10000 | O=C(CCOCCc1cccc2c(=O)[nH]ncc12)N1CCC(c2cc(C(F)(F)F)[nH]n2)CC1 [Compound 282]
≤ 100 | CC(COCCC(=O)N1CCN(c2ccc(C#N)cn2)CC1)c1ccc(Cl)c2c(=O)[nH]ncc12 (single isomer, unassigned) [Compound 416]
1000 to 10000 | CC(COCCC(=O)N1CCN(c2ncc(C(F)(F)F)cn2)CC1)c1cccc2c(=O)[nH]ncc12 (single isomer, unassigned) [Compound 72, 5-(1-(3-oxo-3-(4-(5-(trifluoromethyl)pyrimidin-2-yl)piperazin-1-yl)propoxy)propan-2-yl)phthalazin-1(2H)-one]
≤ 100 | CC(CCOCC(=O)N1CCN(c2ccc(C#N)cn2)CC1)n1nc(C(F)(F)F)c2c(=O)[nH]ncc21 (single isomer, unassigned) [Compound 467]
≤ 100 | CC(COCCC(=O)N1CCN(c2ccc(C#N)cn2)CC1)c1cccc2c(=O)[nH]ncc12 (single isomer, unassigned) [Compound 71]
≤ 100 | CC1CN(C(=O)CCOCCn2cc(C(F)(F)F)c3c(=O)[nH]ncc32)CCN1c1ncc(C(F)(F)F)cn1 (stereo not shown) [Compound 372]
≤ 100 | O=C(CCOCCn1cc(C(F)(F)F)c2c(=O)[nH]ncc21)N1CCN(c2ncc(C(F)(F)F)o2)CC1 [Compound 384]
100 to 1000 | CC(COCCC(=O)N1CCN(c2ccc(C#N)cn2)CC1)N1CCCc2c1cn[nH]c2=O (stereo not shown) [Compound 62]
≤ 100 | Cc1c(C)n(C(C)COCCC(=O)N2CCN(c3ncc(C(F)(F)F)cn3)CC2)c2cn[nH]c(=O)c12 (single isomer, unassigned) [Compound 366]
≤ 100 | Cc1nn(C(C)COCCC(=O)N2CCN(c3ncc(C#N)cn3)CC2)c2cn[nH]c(=O)c12 (single isomer, unassigned) [Compound 262]
≤ 100 | CC(OCCCC(=O)N1CCN(c2ncc(C(F)(F)F)cn2)CC1)c1cccc2c(=O)[nH]ncc12 (stereo not shown) [Compound 123]
≤ 100 | CC(COCCC(=O)N1CCN(c2ncc(C3CC3)cn2)CC1)n1nc(C(F)(F)F)c2c(=O)[nH]ncc21 (single isomer, unassigned) [Compound 280]
≤ 100 | O=C1NCCn2c(CCOCCC(=O)N3CCN(c4ncc(C(F)(F)F)cn4)CC3)cc(C(F)(F)F)c21 [Compound 316, 6-(2-(3-oxo-3-(4-(5-(trifluoromethyl)pyrimidin-2-yl)piperazin-1-yl)propoxy)ethyl)-8-(trifluoromethyl)-3,4-dihydropyrrolo[1,2-a]pyrazin-1(2H)-one]
100 to 1000 | O=C(CCCCOc1cccc2c(=O)[nH]ncc12)N1CCN(c2ncc(C(F)(F)F)cn2)CC1 [Compound 35]
100 to 1000 | O=C(CCNCCN1CCCc2c1cn[nH]c2=O)N1CCN(c2ncc(C(F)(F)F)cn2)CC1 [Compound 61]
≤ 100 | O=C1CCc2cnc(N3CCN(C(=O)CCOCCc4cccc5c(=O)[nH]ncc45)CC3)nc2N1 [Compound 216]
100 to 1000 | O=C1NCc2c(CCOCCC(=O)N3CCN(c4ncc(C(F)(F)F)cn4)CC3)cccc21 [Compound 54]
≤ 100 | CC(CCOCC(=O)N1CCN(c2ncc(Cl)cn2)CC1)n1nc(C(F)(F)F)c2c(=O)[nH]ncc21 (stereo not shown) [Compound 453]
≤ 100 | CC(COCCC(=O)N1CCN(c2ccc(C(F)(F)F)cn2)CC1)n1cc(C(F)(F)F)c2c(=O)[nH]ncc21 (stereo not shown) [Compound 376]
100 to 1000 | N#Cc1ccc(N2CCN(C(=O)c3cccc(Cc4cccc5c4CCNC5=O)c3)CC2)nc1 [Compound 20]
≤ 100 | CCC(COCCC(=O)N1CCN(c2ncc(C(F)(F)F)cn2)CC1)n1nc(C(F)(F)F)c2c(=O)[nH]ncc21 (stereo not shown) [Compound 298]
≤ 100 | O=C(CCOCCn1nc(C(F)(F)F)c2c(=O)[nH]ncc21)N1CCN(c2cc(C(F)(F)F)[nH]n2)CC1 [Compound 471]

IC50 [nM] | SMILES
≤ 100 | O=C(CCOCCn1nc(C(F)(F)F)c2c(=O)[nH]ncc21)N1CCN(c2ncc(C3CC3)cn2)CC1 [Compound 315]
≤ 100 | [2H]C(C)(COCCC(=O)N1CCN(c2ncc(C(F)(F)F)cn2)CC1)n1cc(C(F)(F)F)c2c(=O)[nH]ncc21 (single isomer, unassigned) [Compound 477, 1-(1-(3-oxo-3-(4-(5-(trifluoromethyl)pyrimidin-2-yl)piperazin-1-yl)propoxy)propan-2-yl-2-d)-3-(trifluoromethyl)-1,5-dihydro-4H-pyrrolo[2,3-d]pyridazin-4-one]
≤ 100 | CC(COCCC(=O)N1CCN(c2ncccc2Cl)CC1)n1nc(C(F)(F)F)c2c(=O)[nH]ncc21 (stereo not shown) [Compound 355]
≤ 100 | CC(COCCC(=O)N1CCN(c2ncc(OC(F)(F)F)cn2)CC1)n1nc(C(F)(F)F)c2c(=O)[nH]ncc21 (single isomer, unassigned) [Compound 387]
≤ 100 | CC(COCCC(=O)N1CCN(c2cc(Cl)c(F)cn2)CC1)n1nc(C(F)(F)F)c2c(=O)[nH]ncc21 (single isomer, unassigned) [Compound 445]
≤ 100 | CC(COCCC(=O)N1CCN(c2ncc(C(C)(F)F)cn2)CC1)n1nc(C(F)(F)F)c2c(=O)[nH]ncc21 (single isomer, unassigned) [Compound 486]
≤ 100 | O=C(CCOCCc1cccc2c(=O)[nH]ncc12)N1CCN(c2ncc(C(F)(F)F)cn2)CC1 [Compound 4]
≤ 100 | Cc1cnc(N2CCN(C(=O)CCOCC(C)n3nc(C(F)(F)F)c4c(=O)[nH]ncc43)CC2)nc1 (stereo not shown) [Compound 286]
≤ 100 | O=C(CCOCCc1cccc2c(=O)[nH]ncc12)N1CCN(c2ncc(C(F)(F)F)cn2)C(CO)C1 (single isomer, unassigned) [Compound 149]
≤ 100 | CC1CN(C(=O)CCOCCc2cccc3c(=O)[nH]ncc23)CCN1c1ncc(C(F)(F)F)cn1 (stereo not shown) [Compound 89]
≤ 100 | O=C1NCCn2c(CCOCCC(=O)N3CCN(c4ncc(C(F)(F)F)cn4)CC3)nc(C(F)(F)F)c21 [Compound 235, 3-(2-(3-oxo-3-(4-(5-(trifluoromethyl)pyrimidin-2-yl)piperazin-1-yl)propoxy)ethyl)-1-(trifluoromethyl)-6,7-dihydroimidazo[1,5-a]pyrazin-8(5H)-one]
≤ 100 | O=C(CCOCCn1ncc2c(=O)[nH]ncc21)N1CCN(c2ccc(Cl)cn2)CC1 [Compound 133]
100 to 1000 | N#Cc1ccc(N2CCN(C(=O)c3cccc(Cc4cccc5c(=O)[nH]c(=O)[nH]c45)c3)CC2)nc1 [Compound 18]
≤ 100 | O=C(CCOCCn1nc(C(F)(F)F)c2c(=O)[nH]ncc21)N1CCN(c2noc(C(F)(F)F)n2)CC1 [Compound 320]
100 to 1000 | O=C1NCCn2c(CCOCCC(=O)N3CCN(c4ncc(C(F)(F)F)cn4)CC3)ccc21 [Compound 128]
100 to 1000 | CC1CCc2c(cn[nH]c2=O)N1CCOCCC(=O)N1CCN(c2ncc(C(F)(F)F)cn2)CC1 (stereo not shown) [Compound 126]
100 to 1000 | CC(COCCn1ncc2c(=O)[nH]ncc21)C(=O)N1CCN(c2ncc(C(F)(F)F)cn2)CC1 (stereo not shown) [Compound 156]
≤ 100 | O=C(CCOCCn1ncc2c(=O)[nH]ncc21)N1CCN(c2ccc(C(F)(F)F)cn2)CC1 [Compound 132]
≤ 100 | COc1ccc(N2CCN(C(=O)CCOCC(C)n3nc(C(F)(F)F)c4c(=O)[nH]ncc43)CC2)nc1 (single isomer, unassigned) [Compound 306]
≤ 100 | O=C(CCOCCc1cccc2c(=O)[nH]ncc12)N1CCN(c2ncc(C(F)(F)F)s2)CC1 [Compound 106]
1000 to 10000 | O=C1NCCc2c(NCCOCC(=O)N3CCN(c4ncc(C(F)(F)F)cn4)CC3)cccc21 [Compound 117]
≤ 100 | CC(COCCC(=O)N1CCN(c2ncc(C(F)(F)F)cn2)CC1)n1ncc2c(=O)[nH]ncc21 (stereo not shown) [Compound 168]
≤ 100 | O=C(CCOCCc1cccc2c(=O)[nH]ncc12)N1CCN(c2nc3ccccc3s2)CC1 [Compound 141]
≤ 100 | O=C(CCOCCc1cccc2c(=O)[nH]ncc12)N1CCC(c2nc3ccccc3o2)CC1 [Compound 139]

Source: patent US20240217968A1, “PHARMACEUTICAL COMPOUND” (DUKE STREET BIO LIMITED, priority 2021, published 2024)
